Legend:
neuronal cultures = assay: Functional neuronal phenotype in neuronal cultures; format: cell-based; design: key: Antagonist: antagonists (block Abeta signaling); Agonist: agonists (block Abeta signaling with U-shaped dose-response curve and toxicity at high doses); Inactive: inactive (no effect in neuronal cultures)
Description: Neuronal cultures are treated with various concentrations of sigma compounds for 24 hours and nuclear intensity compared to vehicle is measured.

potassium channel hERG = potassium channel hERG (Homo sapiens (Human), UniProt Q12809); assay: In vitro toxicity, hERG inhibition; format: biochemical
Description: In vitro toxicity for Test Compounds is tested in a number of standard assays.

[1] = tested on: Abeta oligomer-induced membrane trafficking deficits in primary hippocampal neurons; assay: Membrane trafficking/exocytosis (MTT) assay; conditions: read-out: Membrane Trafficking EC50; compound dosed prior to Abeta oligomer addition
Description: Primary hippocampal neurons from E18 Sprague-Dawley rat embryos were plated at optimized concentrations in 384 well plates in NB media (Invitrogen). Neurons were maintained in cultures for 3 weeks, with twice weekly feeding of NB media with N2 supplement (Invitrogen).
MTT reagent (3-(4,5-dimethylthizaol-2yl)-2,5diphenyl tetrazolium bromide) (Roche Molecular Biochemicals) was reconstituted in phosphate buffered saline to 5 mg/mL. 10 μL of MTT labeling reagent is added to each well and incubated at 37° C. for 1 h, then imaged. Exocytosis was assessed by automated microscopy and image processing to quantify the amount of endocytosed and exocytosed formazan.
Each assay plate was formatted so that compounds are tested with and without Abeta oligomer on each plate. […] Reduced formazan was first visible in intracellular vesicles. […] The dye precipitated in the aqueous environment of the culture and formed needle-shaped crystals on the surface of the neuron.

Sigma-1 receptor = Sigma-1 receptor competitive radioligand binding assay; conditions: read-out: Sigma-1 Receptor Affinity, Ki
Description: Radioligand binding assays for Sigma-1 receptors and Sigma-2 receptors were carried out by a commercial contract research organization. For Sigma-1 binding, various concentrations of test compounds from 100 μM to 1 nM were used to displace 8 nM [^3H](+)pentazocine from endogenous receptors on Jurkat cell membranes (Ganapathy M E et al. 1991, J Pharmacol. Exp. Ther. 289:251-260). 10 μM Haloperidol was used to define non-specific binding. […] 10 μM Haloperidol was used to define non-specific binding. Reactions were terminated by rapid filtration through Whatman GF/C filters using a Brandel 12R cell harvester followed by two washes with ice-cold buffer. Radioactivity on the dried filter discs was measured using a liquid scintillation analyzer (Tri-Carb 2900TR; PerkinElmer Life and Analytical Sciences). The displacement curves were plotted and the Ki values of the test ligands for the receptor subtypes were determined using GraphPad Prism (GraphPad Software Inc., San Diego, Calif.). The percentage specific binding was determined by dividing the difference between total bound (disintegrations per minute) and nonspecific bound (disintegrations per minute) by the total bound (disintegrations per minute).

[2] = Mouse liver microsome (MLM) stability; format: in vitro ADME
Description: A first pharmacokinetic study was performed in microsomes of mice mouse liver microsomes, MLM) by a commercial contract research organization. The studies were performed according to Obach, R. S et al. (1997) J. Pharmacol. Exp. Ther., 283: 46-58, which is incorporated herein by reference.

Sigma-2 receptor = Sigma-2 receptor competitive radioligand binding assay; design: species or system rat; conditions: read-out: Sigma-2 Receptor Affinity, Ki
Description: Radioligand binding assays for Sigma-1 receptors and Sigma-2 receptors were carried out by a commercial contract research organization. For Sigma-1 binding, various concentrations of test compounds from 100 μM to 1 nM were used to displace 8 nM [^3H](+)pentazocine from endogenous receptors on Jurkat cell membranes (Ganapathy M E et al. 1991, J Pharmacol. Exp. Ther. 289:251-260). 10 μM Haloperidol was used to define non-specific binding. For Sigma-2 receptors various concentrations of test compounds from 100 μM to 1 nM were used to displace 5 nM [^3H] […] (Bowen W D, et al. 1993, Mol. Neuropharmcol 3:117-126). 10 μM Haloperidol was used to define non-specific binding. Reactions were terminated by rapid filtration through Whatman GF/C filters using a Brandel 12R cell harvester followed by two washes with ice-cold buffer. Radioactivity on the dried filter discs was measured using a liquid scintillation analyzer (Tri-Carb 2900TR; PerkinElmer Life and Analytical Sciences). The displacement curves were plotted and the Ki values of the test ligands for the receptor subtypes were determined using GraphPad Prism (GraphPad Software Inc., San Diego, Calif.). The percentage specific binding was determined by dividing the difference between total bound (disintegrations per minute) and nonspecific bound (disintegrations per minute) by the total bound (disintegrations per minute).
The affinity of candidate sigma-2 ligand compounds at sigma-1 and sigma-2 receptors was also determined by displacement of different known labeled sigma-2 or sigma-1 ligands. Filtration assays were conducted according the previously published procedure (Xu, et al., 2005). Test compounds were dissolved in N,N-Dimethylformamide (DMF), dimethyl sulfoxide (DMSO) or ethanol and then diluted in 50 mM Tris-HCl pH 7.4 buffer containing 150 mM NaCl and 100 mM EDTA. Membrane homogenates were made from guinea pig brain for sigma-1 binding assay and rat liver for sigma-2 binding assay. Membrane homogenates were diluted with 50 mM Tris-HCl buffer, pH 8.0 and incubated at 25° C. in a total volume of 150 uL in 96 well plates with the radioligand and test compounds with concentrations ranging from 0.1 nM to 10 uM. After incubation was completed, the reactions were terminated by the addition of 150 uL of ice-cold wash buffer (10 mM Tris HCl, 150 mM NaCl, pH 7.4) using a 96 channel transfer pipette (Fisher Scientific, Pittsburgh, Pa.) and the samples harvested and filtered rapidly through 96 well fiber glass filter plate (Millipore, Billerica, Mass.) that had been presoaked with 100 uL of 50 mM Tris-HCl buffer. Each filter was washed four times with 200 uL of ice-cold wash buffer (10 mM Tris-HCl, 150 mM NaCl, pH 7.4). A Wallac 1450 MicroBeta liquid scintillation counter (Perkin Elmer, Boston, Mass.) was used to quantitate the bound radioactivity.
Nonspecific binding was determined from samples that contained 10 uM of cold haloperidol.
The binding affinity, Ki values was calculated using the method of Cheng and Prusoff.

Sequence of potassium channel hERG (Q12809 whole entry): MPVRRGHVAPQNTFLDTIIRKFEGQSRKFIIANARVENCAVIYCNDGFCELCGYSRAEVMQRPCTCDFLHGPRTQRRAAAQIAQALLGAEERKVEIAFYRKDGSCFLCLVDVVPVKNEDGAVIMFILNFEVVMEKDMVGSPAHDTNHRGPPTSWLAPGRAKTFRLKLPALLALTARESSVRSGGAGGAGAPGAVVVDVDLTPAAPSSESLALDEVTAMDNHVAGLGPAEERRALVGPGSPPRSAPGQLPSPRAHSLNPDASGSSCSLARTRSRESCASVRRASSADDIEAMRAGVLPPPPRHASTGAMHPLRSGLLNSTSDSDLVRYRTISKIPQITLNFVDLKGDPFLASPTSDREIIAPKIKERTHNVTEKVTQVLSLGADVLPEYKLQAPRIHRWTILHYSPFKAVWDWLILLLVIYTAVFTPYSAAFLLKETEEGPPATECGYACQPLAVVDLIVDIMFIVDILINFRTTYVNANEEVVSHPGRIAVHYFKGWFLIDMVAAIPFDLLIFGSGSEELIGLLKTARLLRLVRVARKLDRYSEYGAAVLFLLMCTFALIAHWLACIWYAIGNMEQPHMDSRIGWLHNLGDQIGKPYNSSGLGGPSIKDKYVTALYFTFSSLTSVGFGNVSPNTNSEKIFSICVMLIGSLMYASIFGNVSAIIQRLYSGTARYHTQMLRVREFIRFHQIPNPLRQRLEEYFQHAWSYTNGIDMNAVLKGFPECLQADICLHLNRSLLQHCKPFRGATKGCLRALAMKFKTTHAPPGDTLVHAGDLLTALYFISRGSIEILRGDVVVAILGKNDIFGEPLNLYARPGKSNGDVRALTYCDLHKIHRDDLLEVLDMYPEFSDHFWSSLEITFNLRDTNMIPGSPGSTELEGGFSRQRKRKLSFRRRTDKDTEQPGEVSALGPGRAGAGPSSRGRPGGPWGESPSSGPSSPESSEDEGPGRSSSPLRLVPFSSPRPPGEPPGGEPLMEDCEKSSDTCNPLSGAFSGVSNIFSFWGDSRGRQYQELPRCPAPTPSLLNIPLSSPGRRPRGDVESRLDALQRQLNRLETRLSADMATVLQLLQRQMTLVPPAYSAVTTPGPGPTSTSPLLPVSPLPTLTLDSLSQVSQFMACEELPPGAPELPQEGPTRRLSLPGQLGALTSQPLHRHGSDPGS

Structure (SMILES)	neuronal phenotype (neuronal cultures)	IC50 (potassium channel hERG) [µM]	EC50 [1] [µM]	Ki (Sigma-1 receptor) [µM]	Mouse liver microsomes, MLM t½ ([2]; mouse, microsomes) [min]	Ki (Sigma-2 receptor) [µM]	Mouse liver microsomes, MLM t½ ([2]; mouse liver microsomes) [min]
CC(C)(CCc1ccc(O)c(OC(F)(F)F)c1)N1Cc2cccc(F)c2C1 [compound 54]	Antagonist	2.5	6.5	0.074	12	0.018	
C[C@H](CCc1ccc(Cl)c(Cl)c1)N1Cc2cc3c(cc2C1)OCO3 [compound 10]	Antagonist	41	0.5	0.0014	8	0.005	
CN(C)C(=O)c1cccc2c1CN(C(C)(C)CCc1ccc(O)c(OC(C)(C)C)c1)C2 [compound 59]	Inactive	18		10	8	0.057	
COc1cc(CC[C@@H](C)N2Cc3cccc(F)c3C2)ccc1OCCO [compound 51]	Neuroactive	1.2		0.077	66	0.8	
COc1cc2c(cc1OC)CN(C(C)(C)CCc1ccc(OCCO)c(OC)c1)C2 [compound 48]	Inactive	1.7	> 20	3.6	582	0.022	
CC(C)Oc1cc(CCC(C)(C)N2Cc3cccc(F)c3C2)ccc1O [compound 28]	Antagonist	9.6	0.07 to 0.08	0.12	4	0.011	
CC(C)(C)Oc1cc(CCC(C)(C)N2Cc3cccc(C(=O)O)c3C2)ccc1O [compound 75]	Inactive	100	> 20	10	508	> 10	
CC(C)Oc1cc(CC[C@@H](C)N2Cc3ccc(F)cc3C2)ccc1O [compound 37]		0.48		0.0091	5	0.14	
COc1cc2c(cc1OC)CN([C@@H](C)CCc1ccc(Cl)c(Cl)c1)C2 [compound 20]		0.66	0.067 to 0.6	0.00057	43	0.00067	
COC[C@H](CCc1ccc(Cl)c(Cl)c1)N1Cc2ccc(F)cc2C1 [compound 46]	Inactive	1.6		0.094	5	0.16	
COc1cc(CCC(C)(C)N2Cc3cccc(C(=O)N4CCN(C)CC4)c3C2)ccc1O [compound 82]	Inactive	52	100		27		
COc1cc(CC[C@@H](C)N2Cc3ccc(Cl)cc3C2)ccc1O [compound 1]		0.43		0.031	11	0.025	
COc1cc(CCC(C)(C)N2Cc3cccc(S(C)(=O)=O)c3C2)ccc1O [compound 64]	Inactive	20		0.18	52	0.0086	
CC(C)(C)Oc1cc(CCC(C)(C)N2Cc3cccc(S(C)(=O)=O)c3C2)ccc1O [compound 66]	Inactive	19		0.13	10	0.0026	
C[C@H](CCc1ccc(OC(=O)N(C)C)c(OC(F)(F)F)c1)N1Cc2ccc(F)cc2C1 [compound 43]		0.67		0.38	5	0.14	
COCCNC(=O)c1cccc2c1CN(C(C)(C)CCc1ccc(O)c(OC)c1)C2 [compound 84]		6.6	100	10	163	10	

Structure (SMILES)	neuronal phenotype (neuronal cultures)	IC50 (potassium channel hERG) [µM]	EC50 [1] [µM]	Ki (Sigma-1 receptor) [µM]	Mouse liver microsomes, MLM t½ ([2]; mouse, microsomes) [min]	Ki (Sigma-2 receptor) [µM]	Mouse liver microsomes, MLM t½ ([2]; mouse liver microsomes) [min]
CC(C)(CCc1ccc(O)c(OC(F)(F)F)c1)N1Cc2c(F)ccc(F)c2C1 [compound 55]		100		0.36	34	0.31	
CC(C)Oc1cc(CC[C@@H](C)N2Cc3ccc(S(C)(=O)=O)cc3C2)ccc1O [compound 69]	Inactive	9.5		0.027	75	0.076	
CC(C)COc1cc(CCC(C)(C)N2Cc3ccc(S(C)(=O)=O)cc3C2)ccc1O [compound 87]		0.57		0.069	86	0.0011	
COc1cc(CCC(C)(C)N2Cc3cccc(F)c3C2)ccc1OCCO [compound 44]	Antagonist	0.099		1.3	29	0.14	
CC(C)Oc1ccc(CC[C@@H](C)N2Cc3cc4c(cc3C2)OCO4)cc1OC(C)C [compound 40]		0.35		0.0078	6	0.0089	
COc1cc(CCC(C)(C)N2Cc3ccc(F)cc3C2)ccc1OC(=O)N(C)C [compound 50]	weak and antagonist	4.4		0.75	33	0.037	
COc1cc(CCC(C)(C)N2Cc3cccc(C(=O)N4CCOCC4)c3C2)ccc1O [compound 80]	Inactive	7.4	100		45	1.4	
COCCN(C)C(=O)c1cccc2c1CN(C(C)(C)CCc1ccc(O)c(OC)c1)C2 [compound 86]		5.1		10	19	10	
COc1cc(CC[C@@H](C)N2Cc3cccc(S(C)(=O)=O)c3C2)ccc1O [compound 65]	Neuroactive	26		1.3	41	0.19	
CC(C)(CCc1ccc(O)c(OC(F)(F)F)c1)N1Cc2cccc(S(C)(=O)=O)c2C1 [compound 67]	Antagonist	44		0.055	39	0.0081	
CC(C)Oc1cc(CCC(C)(C)N2Cc3ccc(S(C)(=O)=O)cc3C2)ccc1O [compound 70]	Inactive	3.1		0.05	79	0.009	
COc1cc(CC[C@@H](C)N2Cc3cc4c(cc3C2)OCO4)ccc1O [compound 6]	Antagonist	0.98	0.3				20
COc1cc(CCC(C)(C)N2Cc3cccc(C(=O)N(C)CCO)c3C2)ccc1O [compound 85]		33		10	194	0.36	
C[C@H](CCc1ccc(O)c(OC(C)(C)C)c1)N1Cc2ccc(S(C)(=O)=O)cc2C1 [compound 63]	Inactive	11		0.017	31	0.38	
COc1cc(CCC(C)(C)N2Cc3cccc(C(=O)N(C)CCN(C)C)c3C2)ccc1O [compound 81]	Inactive	10	100		88		

Source: patent publication US9796672B2, “Isoindoline compositions and methods for treating neurodegenerative disease” (Cognition Therapeutics, Inc., priority 2014, dated 2017)
